# Measured values published in PubChem BioAssay AID248 (DTP/NCI, 2004).
# Values joined by “and” are separate entries in the source; they are usually repeats but may differ in a detail not shown here. Identical values can stand only once. Toxic doses and inconclusive results are not listed.
# System: L1210 leukemia ip in BDF1 mice, survival T/C
# Assay: NCI In Vivo Anticancer Drug Screen. Data for tumor model L1210 Leukemia (intraperitoneal) in B6D2F1 (BDF1) mice
# Settings: endpoint: mean survival time, higher = longer survival
# How it was run: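 Each compound was tested against a transplantable tumor grown in mice. The endpoint was survival, with treated animals benchmarked against vehicle controls as a simple ratio.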
# [1] = dose: 100.0 mg/kg/injection, schedule: Q01DX001 (ip), vehicle: Klucel (hydroxypropylcellulose) (HPC)
# [2] = dose: 200.0 mg/kg/injection, schedule: Q01DX001 (ip), vehicle: Klucel (hydroxypropylcellulose) (HPC)
# [3] = dose: 10.0 mg/kg/injection, schedule: Q01DX009 (ip), vehicle: saline
# [4] = dose: 100.0 mg/kg/injection, schedule: Q01DX009 (ip), vehicle: Klucel (hydroxypropylcellulose) (HPC)
# [5] = dose: 100.0 mg/kg/injection, schedule: Q04DX003 (ip), vehicle: Klucel (hydroxypropylcellulose) (HPC)
# [6] = dose: 200.0 mg/kg/injection, schedule: Q01DX009 (ip), vehicle: Klucel (hydroxypropylcellulose) (HPC)
# [7] = dose: 200.0 mg/kg/injection, schedule: Q04DX003 (ip), vehicle: Klucel (hydroxypropylcellulose) (HPC)
# [8] = dose: 400.0 mg/kg/injection, schedule: Q01DX009 (ip), vehicle: Klucel (hydroxypropylcellulose) (HPC)
# [9] = dose: 400.0 mg/kg/injection, schedule: Q04DX003 (ip), vehicle: Klucel (hydroxypropylcellulose) (HPC)
# [10] = dose: 100.0 mg/kg/injection, schedule: Q04DX003 (ip), vehicle: saline
# [11] = dose: 200.0 mg/kg/injection, schedule: Q04DX003 (ip), vehicle: saline
# [12] = dose: 400.0 mg/kg/injection, schedule: Q04DX003 (ip), vehicle: saline
# [13] = dose: 100.0 mg/kg/injection, schedule: Q01DX009 (ip), vehicle: saline with Tween-80
# [14] = dose: 200.0 mg/kg/injection, schedule: Q01DX009 (ip), vehicle: saline with Tween-80
# [15] = dose: 400.0 mg/kg/injection, schedule: Q01DX009 (ip), vehicle: saline with Tween-80
# [16] = dose: 75.0 mg/kg/injection, schedule: Q01DX001 (ip), vehicle: saline
# [17] = dose: 100.0 mg/kg/injection, schedule: Q04DX003 (ip), vehicle: saline with Tween-80
# [18] = dose: 200.0 mg/kg/injection, schedule: Q04DX003 (ip), vehicle: saline with Tween-80
# [19] = dose: 400.0 mg/kg/injection, schedule: Q04DX003 (ip), vehicle: saline with Tween-80
smiles,measurement,setting,value
CCCCCc1cc(=O)[nH]c(=O)[nH]1,T/C,"dose: 50.0 mg/kg/injection, schedule: Q01DX001 (ip), vehicle: Klucel (hydroxypropylcellulose) (HPC)",97 % of control
same,T/C,[1],96 % of control
same,T/C,[2],96 % of control
CC(C)C(=O)[O][Pb]([CH3])([CH3])[CH3],T/C,"dose: 12.5 mg/kg/injection, schedule: Q04DX002 (ip), vehicle: saline",90 % of control
COc1cccc2c1C(=O)c1c(O)c3c(c(O)c1C2=O)CC(O)(C(C)=O)CC3OC1CC(N)C(OC2CC(N)C(O)C(C)O2)C(C)O1 (centres undefined),T/C,"dose: 0.65 mg/kg/injection, schedule: Q01DX009 (ip), vehicle: saline",111 % of control
same,T/C,"dose: 1.25 mg/kg/injection, schedule: Q01DX009 (ip), vehicle: saline",117 % of control
same,T/C,[3],89 % of control
Nc1[nH]c(=O)[nH]c(=O)c1Br,T/C,[4],97 % of control
same,T/C,[5],100 % of control
same,T/C,[6],103 % of control
same,T/C,[7],100 % of control
same,T/C,[8],101 % of control
same,T/C,[9],97 % of control
Cn1cnnc1N,T/C,[10],97 % of control
same,T/C,[11],101 % of control
same,T/C,[12],103 % of control
Cc1c(N=O)c(=O)n(-c2ccccc2)n1C,T/C,[4],94 % of control
same,T/C,[5],95 % of control
same,T/C,[6],97 % of control
same,T/C,[7],95 % of control
same,T/C,[8],110 % of control
same,T/C,[9],98 % of control
COC(=O)c1oc2cc(Cl)cnc2c1C(=O)OC,T/C,"dose: 100.0 mg/kg/injection, schedule: Q04DX002 (ip), vehicle: saline with Tween-80",97 % of control
same,T/C,"dose: 200.0 mg/kg/injection, schedule: Q04DX002 (ip), vehicle: saline with Tween-80",97 % of control
same,T/C,"dose: 400.0 mg/kg/injection, schedule: Q04DX002 (ip), vehicle: saline with Tween-80",94 % of control
COc1ccc(/C=N\O)cc1OC,T/C,[13],94 % of control and 90 % of control
same,T/C,[14],101 % of control
same,T/C,[15],90 % of control
CC12CCC(/C(=C/N(O)/C=C3\C(=O)C4(C)CCC3C4(C)C)C1=O)C2(C)C,T/C,[16],96 % of control
same,T/C,"dose: 150.0 mg/kg/injection, schedule: Q01DX001 (ip), vehicle: saline",91 % of control
same,T/C,"dose: 300.0 mg/kg/injection, schedule: Q01DX001 (ip), vehicle: saline",94 % of control
CCC(=O)c1ccc(Cc2ccc(C(=O)CC)cc2)cc1,T/C,"dose: 125.0 mg/kg/injection, schedule: Q01DX001 (ip), vehicle: saline",104 % of control
same,T/C,"dose: 250.0 mg/kg/injection, schedule: Q01DX001 (ip), vehicle: saline",101 % of control
same,T/C,"dose: 500.0 mg/kg/injection, schedule: Q01DX001 (ip), vehicle: saline",93 % of control
same,T/C,"dose: 1000.0 mg/kg/injection, schedule: Q01DX001 (ip), vehicle: saline",98 % of control
CCOC(=O)Nc1cc(Cl)c(N)c(NC(=O)OCC)n1,T/C,[13],94 % of control
same,T/C,[17],98 % of control
same,T/C,[14],100 % of control
same,T/C,[18],93 % of control
same,T/C,[15],97 % of control
same,T/C,[19],100 % of control
CCCCN(C)N=Nc1ccc([N+](=O)[O-])cc1C(N)=O,T/C,"dose: 100.0 mg/kg/injection, schedule: Q01DX001 (ip), vehicle: other",100 % of control
same,T/C,[17],110 % of control
same,T/C,"dose: 200.0 mg/kg/injection, schedule: Q01DX001 (ip), vehicle: other",105 % of control
same,T/C,[14],122 % of control
same,T/C,[18],109 % of control
same,T/C,"dose: 266.0 mg/kg/injection, schedule: Q01DX009 (ip), vehicle: saline with Tween-80",160 % of control
same,T/C,"dose: 400.0 mg/kg/injection, schedule: Q01DX001 (ip), vehicle: other",110 % of control
same,T/C,[15],165 % of control and 170 % of control
same,T/C,[19],115 % of control
same,T/C,"dose: 600.0 mg/kg/injection, schedule: Q01DX009 (ip), vehicle: saline with Tween-80",200 % of control
CS/C(N)=N\NC(N)=S,T/C,[1],96 % of control
same,T/C,[2],88 % of control
C[N+](C)(Cc1ccccc1)Cc1ccccc1,T/C,"dose: 5.0 mg/kg/injection, schedule: Q01DX001 (ip), vehicle: saline",96 % of control
same,T/C,"dose: 10.0 mg/kg/injection, schedule: Q01DX001 (ip), vehicle: saline",98 % of control
same,T/C,"dose: 20.0 mg/kg/injection, schedule: Q01DX001 (ip), vehicle: saline",102 % of control
same,T/C,"dose: 40.0 mg/kg/injection, schedule: Q01DX001 (ip), vehicle: saline",102 % of control
same,T/C,[16],105 % of control
same,T/C,"dose: 80.0 mg/kg/injection, schedule: Q01DX001 (ip), vehicle: saline",104 % of control
Nc1ncnc2c1cnn2Cc1ccc(Cl)cc1,T/C,"dose: 50.0 mg/kg/injection, schedule: Q01DX009 (ip), vehicle: saline",100 % of control
same,T/C,"dose: 100.0 mg/kg/injection, schedule: Q01DX001 (ip), vehicle: carboxymethylcellulose (CMC)",98 % of control and 103 % of control
same,T/C,"dose: 100.0 mg/kg/injection, schedule: Q01DX009 (ip), vehicle: saline",88 % of control
same,T/C,"dose: 100.0 mg/kg/injection, schedule: Q04DX003 (ip), vehicle: carboxymethylcellulose (CMC)",97 % of control
same,T/C,"dose: 200.0 mg/kg/injection, schedule: Q01DX001 (ip), vehicle: carboxymethylcellulose (CMC)",93 % of control and 115 % of control
same,T/C,"dose: 200.0 mg/kg/injection, schedule: Q04DX003 (ip), vehicle: carboxymethylcellulose (CMC)",95 % of control
same,T/C,"dose: 400.0 mg/kg/injection, schedule: Q01DX001 (ip), vehicle: carboxymethylcellulose (CMC)",96 % of control and 121 % of control
[Cl][Zn][Cl].[NH-]CCN1CC1.[NH-]CCN1CC1,T/C,[3],108 % of control
same,T/C,"dose: 20.0 mg/kg/injection, schedule: Q01DX009 (ip), vehicle: saline",111 % of control
same,T/C,"dose: 20.0 mg/kg/injection, schedule: Q04DX003 (ip), vehicle: saline",104 % of control
same,T/C,"dose: 40.0 mg/kg/injection, schedule: Q01DX009 (ip), vehicle: saline",93 % of control
same,T/C,"dose: 40.0 mg/kg/injection, schedule: Q04DX003 (ip), vehicle: saline",102 % of control
CCOC(=O)C(c1cccc(OC)c1)C1(C(=O)OCC)CC2(CCC1=O)OCCO2 (centres undefined),T/C,[4],93 % of control
same,T/C,[6],95 % of control
same,T/C,[8],88 % of control
CCCCOP(=O)(OCCCC)C(c1ccccc1)(c1ccccc1)c1ccccc1,T/C,[5],91 % of control
same,T/C,[7],94 % of control
same,T/C,[9],96 % of control
O=C(OCc1ccccc1CN1CCOCC1)c1cccc(Cl)c1,T/C,"dose: 100.0 mg/kg/injection, schedule: Q04DX002 (ip), vehicle: Klucel (hydroxypropylcellulose) (HPC)",92 % of control
same,T/C,"dose: 200.0 mg/kg/injection, schedule: Q04DX002 (ip), vehicle: Klucel (hydroxypropylcellulose) (HPC)",92 % of control
same,T/C,"dose: 400.0 mg/kg/injection, schedule: Q04DX002 (ip), vehicle: Klucel (hydroxypropylcellulose) (HPC)",95 % of control
Cc1cc(C(=O)O)c(C)o1,T/C,[4],96 % of control
same,T/C,[6],93 % of control
Cc1ccc(N2CCN(CCCN3CCN(c4ccccc4Cl)CC3)CC2)cc1,T/C,"dose: 6.25 mg/kg/injection, schedule: Q01DX009 (ip), vehicle: saline with Tween-80",99 % of control
same,T/C,"dose: 12.5 mg/kg/injection, schedule: Q01DX009 (ip), vehicle: saline with Tween-80",89 % of control
same,T/C,"dose: 12.5 mg/kg/injection, schedule: Q04DX003 (ip), vehicle: saline",92 % of control
same,T/C,"dose: 25.0 mg/kg/injection, schedule: Q01DX009 (ip), vehicle: saline with Tween-80",94 % of control
same,T/C,"dose: 25.0 mg/kg/injection, schedule: Q04DX003 (ip), vehicle: saline",90 % of control
C[n+]1ccccc1C(=O)O,T/C,"dose: 100.0 mg/kg/injection, schedule: Q01DX001 (ip), vehicle: saline",97 % of control
same,T/C,[10],97 % of control
same,T/C,"dose: 200.0 mg/kg/injection, schedule: Q01DX001 (ip), vehicle: saline",106 % of control
same,T/C,[11],95 % of control
same,T/C,"dose: 400.0 mg/kg/injection, schedule: Q01DX001 (ip), vehicle: saline",101 % of control
same,T/C,[12],92 % of control
COc1ccccc1NC(=O)Nc1ccc(F)cc1,T/C,[4],95 % of control
same,T/C,[5],95 % of control
same,T/C,[6],92 % of control
same,T/C,[7],92 % of control
same,T/C,[8],108 % of control
same,T/C,[9],94 % of control
